Data: publication PMC8956313, “Biological investigation of N-methyl thiosemicarbazones as antimicrobial agents and bacterial carbonic anhydrases inhibitors” (Journal of Enzyme Inhibition and Medicinal Chemistry, 2022)

Legend:
Experiment in all cases: stopped-flow CO2 hydrase assay
Format in all cases: biochemical
hCA II = biological target: T1, hCA II (Homo sapiens, UniProt P00918)
T1 construct: gene CA2; recombinant, obtained in house

psCA3-β = biological target: T2, psCA3-β (Pseudomonas aeruginosa, UniProt Q9HVB9)
T2 construct: gene PA4676; recombinant, expressed in E. coli (DE3), purified
T2 sequence (Q9HVB9 1-215): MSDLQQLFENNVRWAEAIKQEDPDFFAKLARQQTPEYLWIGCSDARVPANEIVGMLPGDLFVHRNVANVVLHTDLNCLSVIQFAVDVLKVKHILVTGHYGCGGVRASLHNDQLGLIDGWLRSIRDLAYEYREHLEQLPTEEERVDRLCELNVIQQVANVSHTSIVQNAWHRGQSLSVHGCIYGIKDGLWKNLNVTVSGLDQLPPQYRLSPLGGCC

EcoγCA = biological target: T3, EcoγCA (Escherichia coli, UniProt P0A9W9)
T3 construct: gene yrdA; recombinant, expressed in E. coli (DE3), purified
T3 sequence (P0A9W9 1-184): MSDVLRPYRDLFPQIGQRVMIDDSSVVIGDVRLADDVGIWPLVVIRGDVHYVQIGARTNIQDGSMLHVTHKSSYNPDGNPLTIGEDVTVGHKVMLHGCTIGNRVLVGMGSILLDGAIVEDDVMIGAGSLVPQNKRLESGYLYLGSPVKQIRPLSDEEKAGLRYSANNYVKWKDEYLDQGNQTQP

EcoβCA = biological target: T4, EcoβCA (Escherichia coli, UniProt P61517)
T4 construct: gene can; recombinant, expressed in E. coli (DE3), purified
T4 sequence (P61517 whole entry): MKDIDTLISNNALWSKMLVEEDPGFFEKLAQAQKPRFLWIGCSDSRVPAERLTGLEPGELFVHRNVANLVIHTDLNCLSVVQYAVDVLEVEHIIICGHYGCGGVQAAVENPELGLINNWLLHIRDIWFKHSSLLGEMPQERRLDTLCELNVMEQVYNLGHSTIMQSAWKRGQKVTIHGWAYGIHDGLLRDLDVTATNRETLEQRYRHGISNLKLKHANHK

hCA I = biological target: T5, hCA I (Homo sapiens, UniProt P00915)
T5 construct: gene CA1; recombinant, obtained in house
T5 sequence (P00915 2-261): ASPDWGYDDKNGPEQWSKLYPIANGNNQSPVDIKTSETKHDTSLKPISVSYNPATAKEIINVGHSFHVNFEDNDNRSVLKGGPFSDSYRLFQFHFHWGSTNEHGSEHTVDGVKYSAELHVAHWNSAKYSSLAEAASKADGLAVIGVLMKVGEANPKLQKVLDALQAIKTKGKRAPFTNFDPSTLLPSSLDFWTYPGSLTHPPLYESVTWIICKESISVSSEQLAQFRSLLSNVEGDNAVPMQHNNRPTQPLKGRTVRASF

HpαCA = biological target: T6, HpαCA (Helicobacter pylori, UniProt O25798); conditions: HEPES pH 7.40, 20 mM Na2SO4, 15 min preincubation, room temperature
T6 construct: gene HP_1186; recombinant, expressed in E. coli (DE3), purified
T6 sequence (O25798 19-202): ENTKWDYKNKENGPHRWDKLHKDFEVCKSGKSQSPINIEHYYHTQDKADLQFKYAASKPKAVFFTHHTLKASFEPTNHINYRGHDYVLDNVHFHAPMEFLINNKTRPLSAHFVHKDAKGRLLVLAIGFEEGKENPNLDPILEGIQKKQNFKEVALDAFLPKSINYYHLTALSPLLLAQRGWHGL

HpβCA = biological target: T7, HpβCA (Helicobacter pylori, UniProt O24855)
T7 construct: gene cynT; recombinant, expressed in E. coli (DE3), purified
T7 sequence (O24855 1-221): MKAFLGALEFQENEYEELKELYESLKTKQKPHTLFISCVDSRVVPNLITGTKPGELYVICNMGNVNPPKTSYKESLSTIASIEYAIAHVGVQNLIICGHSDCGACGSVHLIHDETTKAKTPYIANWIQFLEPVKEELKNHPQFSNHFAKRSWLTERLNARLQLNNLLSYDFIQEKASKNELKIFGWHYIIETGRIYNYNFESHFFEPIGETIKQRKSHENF

| SMILES | Ki (hCA II) [µM] | Ki (psCA3-β) [µM] | Ki (EcoγCA) [µM] | Ki (hCA I) [µM] | also measured |
| --- | --- | --- | --- | --- | --- |
| CNC(=S)NN=C(C)c1ccc(OC)cc1 [compound 1, TSC 1] | > 800 | 92.1 | 86.2 |  |  |
| CNC(=S)NN=C(C)c1ccc(S(C)(=O)=O)cc1 [compound 2, TSC 2] | > 800 | 93.4 | 80 |  |  |
| CNC(=S)NN=C(C)c1ccc(N2CCOCC2)cc1 [compound 3, TSC 3] | > 800 |  |  |  | Ki (EcoβCA): 91.5 µM |
| CNC(=S)NN=C(C)c1ccc(-n2ccnc2)cc1 [compound 4, TSC 4] |  |  |  | > 1000 |  |
| CNC(=S)NN=C(C)c1ccc(-c2cc3ccccc3[nH]2)cc1 [compound 5, TSC 5] |  |  |  |  | Ki (HpαCA): 95.2 µM; Ki (HpβCA): 348 µM |
| CNC(=S)NN=C(C)c1ccc2c(c1)OCO2 [compound 6, TSC 6] |  |  |  | > 1000 |  |
| CNC(=S)NN=C(C)c1ccc2c(c1)OCCO2 [compound 7, TSC 7] |  |  |  | > 1000 | Ki (EcoβCA): 96.5 µM |
| CNC(=S)NN=C(C)c1ccc(Br)s1 [compound 9, TSC 9] | > 800 | 86.7 | 83.2 |  |  |
